# In paper PMC3871529, “At a Supra-Physiological Concentration, Human Sexual Hormones Act as Quorum-Sensing Inhibitors” (PLoS ONE, 2013):
# Read-outs that look alike come from different tables or passages of the source.
# What was measured:
# [1] = tested on: Agrobacterium biosensor cells; assay: Minimal bactericidal concentration (MBC); format: cell-based, Agrobacterium tumefaciens; conditions: 99.9% reduction of 10^5 CFU/ml after 36 h at 30°C
# Experimental: Aside from the effect of QSI on QS regulation, the toxicity of these compounds was tested on bacterial cells by measuring two parameters: the minimal inhibitory concentration (MIC) and minimal bactericidal concentration (MBC). MIC, which is the lowest concentration of QSI (µg/ml) inhibiting any visible culture after 36 h of incubation at 30°C, was estimated by culturing 10^5 CFU/ml of the Agrobacterium biosensor cells in the presence of different concentrations of the QSI. MBC, which is the lowest concentration of QSI (µg/ml) that results in a 99.9% reduction of the initial bacterial population (10^5 CFU/ml) after 36 h of incubation at 30°C in the presence of different concentrations of QSI, was estimated by plating 100 µL of the Agrobacterium cultures on agar LBm plates. After an incubation of 48 h at 30°C, CFU were counted and the MBC values were calculated.
# LasR = molecular target: T1, LasR (Pseudomonas aeruginosa, UniProt P25084); assay: E. coli bioindicator expressing LasR (pAL105, lasI::luxCDABE luminescence); format: cell-based; conditions: OC12-HSL 100 µM; QSIs at 0.1 mg/ml, naringenin and naringin at 0.5 mg/ml
# T1 construct: expressed in transfected cells; host or cells: Escherichia coli JLD271 carrying pAL105 (pSB401-derivative, lasR+ lasI::luxCDABE)
# T1 sequence (P25084 whole entry): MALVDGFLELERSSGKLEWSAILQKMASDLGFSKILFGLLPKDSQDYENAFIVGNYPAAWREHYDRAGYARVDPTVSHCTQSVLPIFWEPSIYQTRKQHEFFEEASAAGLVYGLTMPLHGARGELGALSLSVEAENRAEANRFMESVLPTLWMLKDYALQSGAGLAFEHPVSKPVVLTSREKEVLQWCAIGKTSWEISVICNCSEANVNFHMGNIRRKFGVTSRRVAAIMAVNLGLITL
# Experimental: (§1) We determined whether the AHL-binding transcriptional factors LasR and RhlR were impaired in their capacity to activate expression of the QS-regulated genes in the presence of various QSIs. This was achieved by using two E. coli bioindicator strains expressing either LasR or RhlR proteins and harboring an appropriate reporter lux operon for measuring their transcriptional activity in the presence of OC12-HSL at 100 µM and C4-HSL at 10 µM, respectively. Adding C4-HSL to the pAL101-bioindicator or OC12-HSL to the pAL105-bioindicator induced the expression of the reporter lux operon and the consequent production of luminescence. In contrast, only background levels of luminescence were detected in control strains harboring the plasmids pAL102 or pAL106, which lacks the rhlR or lasR gene, respectively.
# (§2) Figure 7 QSIs modulated activity of the AHL-sensors in P. aeruginosa. Luminescence of the reporting operon lux, expressed in relative light units (RLU/OD600), was measured in E. coli bioindicator strains harboring the LasR (A) and RhlR (B) AHL-sensing systems of P. aeruginosa in the presence of […]. The QSIs estradiol, estrone, estriol and hordenine were added at 0.1 mg/ml, while naringenin and naringin, added at 0.5 mg/ml, were used as QSI-reference and non-QSI reference, respectively. Each test (n = 6) was compared with the DMSO-condition using Student's t test. Asterisks indicate statistically different data (p value of ≤0.01).
# (§3) Escherichia coli JLD271 biosensor strains harboring LasR- and RhlR-based plasmids pAL105 and pAL101 and control plasmids pAL106 (LasR^-) and pAL102 (RhlR^−) (Table 1) were prepared according to Vandeputte et al.. Briefly, these strains were grown in LB medium supplemented with tetracycline (10 µg/ml) and chloramphenicol (25 µg/ml) for 24 h. Then 50-µl portions of the cultures were subcultured in 1 ml of LB medium (the starting OD600 ranged between 0.02 and 0.025 corresponding to 5.10^6 CFU) supplemented with 10 µl of DMSO (1% [vol/vol] final), 10 µl of naringenin or naringin dissolved in DMSO (2 mM, final concentration), or 10 µl of the molecule to be tested. To induce the expression of the lux operon, 0, 1, 10 or […] of C4-HSL was added to pAL101 and pAL102, while OC12-HSL was added to pAL105 and pAL106. After incubation for 2 h at 37°C with agitation (175 rpm), 200 µl of culture was transferred to 96-well OptiPlate-96 F plates from Perkin-Elmer, and the luminescence of each sample was measured by using a TopCount NXT device from Perkin-Elmer. The LasR(pAL106) and RhlR(pAL102) biosensors were used for background subtraction, and the OD600 values were measured to account for the differences in cell density. All experiments were performed in six replicates. The statistical significance of each test was evaluated by conducting Student's t tests using the GraphPad Prism software, and p values ≤0.05 were considered significant. Naringenin (4′,5,7-trihydroxyflavanone), naringin (4′,5,7-trihydroxyflavanone 7-rhamnoglucoside), the AHLs OC12-HSL and C4-HSL were purchased from Sigma-Aldrich and dissolved freshly in 100% DMSO before use. Tested QSIs were dissolved in 100% DMSO before use.
# RhlR = molecular target: T2, RhlR (Pseudomonas aeruginosa, UniProt P54292); assay: E. coli bioindicator expressing RhlR (pAL101, rhlI::luxCDABE luminescence); format: cell-based; conditions: C4-HSL 10 µM; QSIs at 0.1 mg/ml, naringenin and naringin at 0.5 mg/ml
# T2 construct: expressed in transfected cells; host or cells: Escherichia coli JLD271 carrying pAL101 (pSB401-derivative, rhlR+ rhlI::luxCDABE)
# T2 sequence (P54292 whole entry): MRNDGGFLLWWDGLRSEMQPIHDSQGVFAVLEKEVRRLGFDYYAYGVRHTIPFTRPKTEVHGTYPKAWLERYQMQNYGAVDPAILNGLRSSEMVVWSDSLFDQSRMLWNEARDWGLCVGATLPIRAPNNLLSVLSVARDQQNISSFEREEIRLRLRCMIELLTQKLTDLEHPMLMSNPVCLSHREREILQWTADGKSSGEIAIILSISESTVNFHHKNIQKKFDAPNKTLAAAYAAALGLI
# Experimental: as §1, §2, §3
# [2] = tested on: A. tumefaciens NT1(pZLR4) traG-lacZ reporter fusion; assay: QSI activity on A. tumefaciens AHL-bioindicator (traG-lacZ β-galactosidase); format: cell-based, Agrobacterium tumefaciens; conditions: for QSI hit in library screening: second screening: compounds at 5 µg/ml, C8-HSL 10 nM, A. tumefaciens biosensor
# Experimental: Two bacterial QS-signal biosensors were used. Chromobacterium violaceum CV026 [41] was grown in Luria-Bertani modified (LBm) medium, in which the NaCl concentration was 5 g/l instead of 10 g/l. Agrobacterium tumefaciens NT1(pZLR4) was grown in AB minimal medium supplemented with mannitol (0.2%). After supplementation with appropriate AHL, each of the QS-biosensors expresses a reporting activity, which is the production of the pigment violacein in C. violaceum CV026 and that of β-galactosidase from the transcriptional fusion traG::lacZ in A. tumefaciens NT1(pZLR4).
# When the screening was performed, the chemical library of the Institut de Chimie des Substances Naturelles (ICSN, Gif-sur-Yvette, France) contained more than 3500 synthetic and natural compounds, which were individually dissolved in dimethylsulfoxide (DMSO) at 1mg/ml and stored in 96 microwell plates. A first screening was performed by mixing biosensor CV026 with the AHL hexanoylhomoserine lactone (C6-HSL) at 0.5 µM and the tested compounds at 50 µg/ml. Final volume was adjusted to 100 µl with a synthetic medium (10% LBm and 0.4% sucrose). After 24 hours of incubation at 30°C, the presence or absence of violacein pigment was quoted by visual reading. […] Final volume was adjusted to 100 µl by the addition of AB minimal medium supplemented with mannitol (0.2%) and TY medium (10%). After 4 hours of incubation at 30°C, β-galactosidase activity was measured in A. tumefaciens cultures as previously described. In the two screenings, 4-nitropyridine-N-oxide (4-NPO) was used as a QSI reference. […]
Compound,"MBC ([1]; Agrobacterium, read-out: MBC)",effect on LasR functionality (lux luminescence) (LasR),effect on RhlR functionality (lux luminescence) (RhlR),"inhibition at 100 µg/mL ([2]; Agrobacterium tumefaciens, read-out: inhibition (%) at 100 µg/ml)",QSI hit in library screening [2],"IC50 ([2]; β-galactosidase activity of Agrobacterium biosensor in presence of AHL (C8-HSL 10 nM), QSI 1.5 to 100 µg/ml)",MBC [1]
"C[C@]12CC[C@@H]3c4ccc(O)cc4CC[C@H]3[C@@H]1C[C@@H](O)[C@@H]2O [Estriol, estriol]",> 100 µg/mL,significant impact,significant impact,–,–,–,–
"CN(C)CCc1ccc(O)cc1 [Compound 3499, hordenine]",> 100 µg/mL,significant impact,significant impact,19%,hits,–,–
"3-Hydroxy-13-methyl-6,7,8,9,11,12,13,14,15,17-decahydro-cyclopenta[a] phenanthren-16-one [Compound 729, reference compound]",–,significant impact,significant impact,–,hits,75 µg/mL,>100 µg/mL
